Patent US5264433A, “Benzodiazepine derivatives” (Fujisawa Pharmaceutical Co., Ltd., priority 1988, dated 1993)

Assays:
[1] = system: CCK-A receptor; assay: CCK-A receptor antagonist selectivity (statement only, no method); settings: statement in words, no data
[2] = system: CCK receptor; assay: CCK receptor antagonism in isolated fundic circular muscle from guinea pig stomach; settings: test compound 1×10^-5 M added 5 minutes before CCK-8 (3.2×10^-7 M); isolated circular muscle strip
Method: CCK receptor antagonism in isolated fundic circular muscle from guinea pig stomach
The strip of circular muscle suspended in 25 ml organ bath containing Kreb's bicarbonate solution (NaCl 118 mM, KCl 4.8 mM, KH2 PO4 1.2 mM, MgSO4 1.2 mM, CaCl2 2.5 mM, NaHCO3 25 mM, glucose 11 mM and bovine serum albumin 0.1%) maintained at 37° C. and gassed with 95% O2 and 5% CO2.
The strip was placed under an initial tension of 0.5 g and equilibrated for 60 minutes during which the bath volume was replaced every 15 minutes. Isometric contraction was measured using a force transducer. CCK-8 (3.2×10^-7 M) was added to the bathing solution and the contractile force was measured. After washing out CCK-8, test compound A (1×10^-5 M) was added. 5 minutes later, CCK-8 was added and the contractile force was measured. CCK antagonism was calculated by comparing the contractile force induced by CCK in the absence or presence of test compound A.

SMILES: O=C(N[C@H]1N=C(c2ccccc2)c2ccccc2N(Cc2nnn[nH]2)C1=O)c1cc2ccccc2[nH]1 [Example 42, (3S)-1,3-dihydro-3-(2-indolylcarbonylamino)-5-phenyl-1-[(1 H-tetrazol-5-yl)-methyl]-2H-1,4-benzodiazepin-2-one]
- CCK-A receptor antagonist selectivity [1]: selective CCK-A receptor antagonist

SMILES: O=C(NC1N=C(c2ccccc2)c2ccccc2N(CCO)C1=O)c1cc2ccccc2[nH]1 (racemic) [test compound A, (3RS)-1,3-Dihydro-1-(2-hydroxyethyl)-3-(2-indolylcarbonylamino)-5-phenyl-2H-1,4-benzodiazepine-2-one]
- Inhibition (%) of CCK-induced contractile force [2]: 91%
